Measured values reported in patent publication US20170008888A1 (KYORIN PHARMACEUTICAL CO., LTD., priority 2014, published 2017).
Read-outs that look alike come from different tables or passages of the source.

How the values were obtained:
JAK1 = target: T1, JAK1 (Homo sapiens, UniProt P23458); assay: Probe-based (AX9989) kinase profiling in Jurkat lysate: JAK1; format: binding
T1 construct: screened for activity against several kinases in Jurkat cells; endogenous in cells; host or cells: Jurkat cell lysate
In short: (§1)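 Jurkat lysate, HEPES pH 7.5 buffer + 20 mM MnCl2; cpd 15 min RT; AX9989 ATP probe 5 μM final, RT. Trypsin digest, streptavidin capture, LC/MS; % inhibition vs vehicle from labeled-peptide signal.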

AurA = target: T2, AurA (Homo sapiens, UniProt O14965); assay: Probe-based (AX9989) kinase profiling in Jurkat lysate: AurA; format: binding
T2 construct: screened for activity against several kinases in Jurkat cells; endogenous in cells; host or cells: Jurkat cell lysate
T2 sequence (O14965 1-403): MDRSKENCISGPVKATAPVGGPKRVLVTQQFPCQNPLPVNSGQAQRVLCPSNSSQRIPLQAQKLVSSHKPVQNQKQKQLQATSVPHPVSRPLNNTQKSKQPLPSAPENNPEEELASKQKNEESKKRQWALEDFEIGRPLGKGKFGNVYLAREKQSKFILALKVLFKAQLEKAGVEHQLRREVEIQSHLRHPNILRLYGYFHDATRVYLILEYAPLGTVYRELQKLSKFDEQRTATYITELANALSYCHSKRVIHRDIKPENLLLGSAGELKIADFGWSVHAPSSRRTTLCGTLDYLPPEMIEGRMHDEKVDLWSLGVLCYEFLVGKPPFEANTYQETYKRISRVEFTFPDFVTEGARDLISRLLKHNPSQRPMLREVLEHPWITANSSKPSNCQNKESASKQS
In short: as §1

ERK5 = target: T3, ERK5 (Homo sapiens, UniProt Q13164); assay: Probe-based (AX9989 acyl phosphate ATP probe) kinase profiling in Jurkat lysate: ERK5; format: binding; details: for IC50: Jurkat lysate
T3 construct: screened for activity against several kinases in Jurkat cells; endogenous in cells; host or cells: Jurkat cell lysate
In short: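 Gel-filtered Jurkat lysate (5 mg/ml, 20 mM MnCl2) preincubated 15 min at room temperature with compound, then labelled with 5 μM AX9989 acyl phosphate ATP probe. Probe-labelled ERK5 active-site peptides quantified by LC/MS after trypsin digestion and streptavidin capture; IC50 calculated from percent inhibition at the screening concentration.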

ACK = target: T4, ACK (Homo sapiens, UniProt Q07912); assay: Probe-based (AX9989) kinase profiling in Jurkat lysate: ACK; format: binding
T4 construct: screened for activity against several kinases in Jurkat cells; endogenous in cells; host or cells: Jurkat cell lysate
In short: as §1

AMPKa1 or AMPKa2 = assay: Probe-based (AX9989) kinase profiling in Jurkat lysate: AMPKa1 or AMPKa2; format: binding; details: for Kinase inhibition % at indicated screening concentration: AMPKa1 or AMPKa2: screening concentration 1.0 μM
In short: as §1

human PBMCs = assay: Human PBMC TNF-α response to endotoxin (ELISA); format: cell-based; details: 0.1 μg/ml LPS 16 h, read-out: EC50 for the inhibition of the human PBMC TNF-α response to endotoxin, ave. ± S.D.
Protocol: Human PBMCs (Astarte Biologics, Redmond, Wash.) were seeded at 2e6 cells/ml in RPMI 1640 containing 10% (v/v) charcoal-dextran treated, heat inactivated FBS (Omega Scientific, Tarzana, Calif.), 0.05 mM 2-Mercaptoethanol (Sigma-Aldrich, St. Louis, Mo.), and 1×Pen/Strep Amphotericin B (Lonza, Allendale, N.J.). Cells were pre-treated with test compounds (10 μM down by ⅕ in a 4-point serial dilution series) for 1 h at 37° C. in a humidified atmosphere at 5% CO2. Cells were then stimulated with 0.1 μg/ml lipopolysaccharide (LPS) from E. coli 0111:B4 (EMD Millipore, Billerica, Mass.) for 16 h at 37° C. in a humidified atmosphere at 5% CO2. Supernatant was collected and a 25-fold dilution was analyzed for TNF-α concentration using an ELISA kit from Life Technologies (Grand Island, N.Y.) according to the manufacturer's instructions. Absorbance at 450 nm was read using the Synergy 2 multi-detection microplate reader (BioTek Instruments, Winooski, Vt.).

TAO2 = target: T5, TAO2 (Homo sapiens, UniProt Q9UL54); assay: Probe-based (AX9989) kinase profiling in Jurkat lysate: TAO2; format: binding
T5 construct: screened for activity against several kinases in Jurkat cells; endogenous in cells; host or cells: Jurkat cell lysate
T5 sequence (Q9UL54 1-1235): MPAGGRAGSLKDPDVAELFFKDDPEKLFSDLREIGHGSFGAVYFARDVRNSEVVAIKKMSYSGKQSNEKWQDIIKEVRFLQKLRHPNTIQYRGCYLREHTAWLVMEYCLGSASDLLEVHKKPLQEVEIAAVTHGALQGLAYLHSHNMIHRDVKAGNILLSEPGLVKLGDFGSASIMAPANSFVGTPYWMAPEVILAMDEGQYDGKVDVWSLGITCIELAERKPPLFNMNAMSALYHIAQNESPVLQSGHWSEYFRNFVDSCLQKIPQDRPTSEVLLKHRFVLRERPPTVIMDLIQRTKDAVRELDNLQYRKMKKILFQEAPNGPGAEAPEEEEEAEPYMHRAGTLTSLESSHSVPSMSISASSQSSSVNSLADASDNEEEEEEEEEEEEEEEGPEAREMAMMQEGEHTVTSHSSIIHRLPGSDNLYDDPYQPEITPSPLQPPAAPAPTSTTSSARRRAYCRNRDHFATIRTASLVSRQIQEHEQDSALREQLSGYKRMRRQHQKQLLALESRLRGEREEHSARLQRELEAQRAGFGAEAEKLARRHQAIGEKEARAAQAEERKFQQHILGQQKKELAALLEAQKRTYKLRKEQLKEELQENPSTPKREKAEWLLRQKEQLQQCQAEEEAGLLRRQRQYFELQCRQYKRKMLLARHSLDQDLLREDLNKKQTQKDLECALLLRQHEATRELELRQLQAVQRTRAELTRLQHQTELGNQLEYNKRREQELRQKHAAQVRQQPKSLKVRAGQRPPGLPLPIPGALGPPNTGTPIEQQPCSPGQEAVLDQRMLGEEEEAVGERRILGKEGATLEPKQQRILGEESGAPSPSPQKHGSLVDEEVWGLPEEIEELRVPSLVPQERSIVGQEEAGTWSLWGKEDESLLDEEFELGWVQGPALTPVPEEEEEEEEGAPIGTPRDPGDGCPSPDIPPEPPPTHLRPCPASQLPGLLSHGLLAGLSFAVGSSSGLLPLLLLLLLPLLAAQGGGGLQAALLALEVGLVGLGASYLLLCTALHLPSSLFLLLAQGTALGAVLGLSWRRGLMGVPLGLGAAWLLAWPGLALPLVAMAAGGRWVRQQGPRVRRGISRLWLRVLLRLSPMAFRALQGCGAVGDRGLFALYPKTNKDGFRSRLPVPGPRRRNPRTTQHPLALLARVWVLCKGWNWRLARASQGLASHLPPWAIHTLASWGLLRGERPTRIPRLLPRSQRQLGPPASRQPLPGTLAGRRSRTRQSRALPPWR
In short: as §1

ABL or ARG = assay: Probe-based (AX9989) kinase profiling in Jurkat lysate: ABL or ARG; format: binding; details: for Kinase inhibition % at indicated screening concentration: ABL or ARG: screening concentration 1.0 μM
In short: as §1

AurB or AurC = assay: Probe-based (AX9989) kinase profiling in Jurkat lysate: AurB or AurC; format: binding; details: for Kinase inhibition % at indicated screening concentration: AurB or AurC: screening concentration 1.0 μM
In short: as §1

[1] = screening concentration 1.0 μM, read-out: Kinase inhibition % at indicated screening concentration: JAK1
[2] = screening concentration 1.0 μM, read-out: Kinase inhibition % at indicated screening concentration: AurA
[3] = calculated from percent inhibition of AX9989 labeling and the screening concentration
[4] = screening concentration 1.0 μM, read-out: Kinase inhibition % at indicated screening concentration: ERK5
[5] = screening concentration 1.0 μM, read-out: Kinase inhibition % at indicated screening concentration: ACK
[6] = screening concentration 1.0 μM, read-out: Kinase inhibition % at indicated screening concentration: TAO2

T1 sequence (P23458 whole entry): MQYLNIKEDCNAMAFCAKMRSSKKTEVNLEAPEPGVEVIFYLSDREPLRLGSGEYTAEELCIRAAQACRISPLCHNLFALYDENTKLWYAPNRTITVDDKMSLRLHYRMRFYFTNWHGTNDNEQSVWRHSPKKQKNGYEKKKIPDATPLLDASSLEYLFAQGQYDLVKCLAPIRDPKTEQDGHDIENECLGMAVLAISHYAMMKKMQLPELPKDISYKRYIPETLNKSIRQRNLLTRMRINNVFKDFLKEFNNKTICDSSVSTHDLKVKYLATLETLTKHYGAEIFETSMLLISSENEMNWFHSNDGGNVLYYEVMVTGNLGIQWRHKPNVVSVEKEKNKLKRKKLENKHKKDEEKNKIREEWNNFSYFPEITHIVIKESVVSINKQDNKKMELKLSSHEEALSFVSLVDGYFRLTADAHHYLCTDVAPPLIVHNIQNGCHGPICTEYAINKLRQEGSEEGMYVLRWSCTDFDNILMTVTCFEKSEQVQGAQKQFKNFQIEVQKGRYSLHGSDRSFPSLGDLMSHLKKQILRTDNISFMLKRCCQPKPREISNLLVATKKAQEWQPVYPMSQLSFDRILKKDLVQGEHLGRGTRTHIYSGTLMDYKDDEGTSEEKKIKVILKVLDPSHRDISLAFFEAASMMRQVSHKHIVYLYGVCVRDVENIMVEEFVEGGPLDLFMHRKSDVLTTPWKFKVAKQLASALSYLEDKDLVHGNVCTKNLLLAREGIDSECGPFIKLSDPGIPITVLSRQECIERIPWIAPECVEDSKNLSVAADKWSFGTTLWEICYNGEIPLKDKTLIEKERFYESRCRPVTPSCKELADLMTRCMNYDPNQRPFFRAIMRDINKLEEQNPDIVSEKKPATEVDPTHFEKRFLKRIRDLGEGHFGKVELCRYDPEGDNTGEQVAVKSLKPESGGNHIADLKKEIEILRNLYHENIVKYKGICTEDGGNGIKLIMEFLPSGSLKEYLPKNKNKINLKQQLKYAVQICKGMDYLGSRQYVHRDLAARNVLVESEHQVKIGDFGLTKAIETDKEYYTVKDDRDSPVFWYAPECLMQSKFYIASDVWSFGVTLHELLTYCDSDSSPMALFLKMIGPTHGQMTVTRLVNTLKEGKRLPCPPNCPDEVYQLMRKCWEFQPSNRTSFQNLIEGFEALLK
T4 sequence (Q07912 whole entry): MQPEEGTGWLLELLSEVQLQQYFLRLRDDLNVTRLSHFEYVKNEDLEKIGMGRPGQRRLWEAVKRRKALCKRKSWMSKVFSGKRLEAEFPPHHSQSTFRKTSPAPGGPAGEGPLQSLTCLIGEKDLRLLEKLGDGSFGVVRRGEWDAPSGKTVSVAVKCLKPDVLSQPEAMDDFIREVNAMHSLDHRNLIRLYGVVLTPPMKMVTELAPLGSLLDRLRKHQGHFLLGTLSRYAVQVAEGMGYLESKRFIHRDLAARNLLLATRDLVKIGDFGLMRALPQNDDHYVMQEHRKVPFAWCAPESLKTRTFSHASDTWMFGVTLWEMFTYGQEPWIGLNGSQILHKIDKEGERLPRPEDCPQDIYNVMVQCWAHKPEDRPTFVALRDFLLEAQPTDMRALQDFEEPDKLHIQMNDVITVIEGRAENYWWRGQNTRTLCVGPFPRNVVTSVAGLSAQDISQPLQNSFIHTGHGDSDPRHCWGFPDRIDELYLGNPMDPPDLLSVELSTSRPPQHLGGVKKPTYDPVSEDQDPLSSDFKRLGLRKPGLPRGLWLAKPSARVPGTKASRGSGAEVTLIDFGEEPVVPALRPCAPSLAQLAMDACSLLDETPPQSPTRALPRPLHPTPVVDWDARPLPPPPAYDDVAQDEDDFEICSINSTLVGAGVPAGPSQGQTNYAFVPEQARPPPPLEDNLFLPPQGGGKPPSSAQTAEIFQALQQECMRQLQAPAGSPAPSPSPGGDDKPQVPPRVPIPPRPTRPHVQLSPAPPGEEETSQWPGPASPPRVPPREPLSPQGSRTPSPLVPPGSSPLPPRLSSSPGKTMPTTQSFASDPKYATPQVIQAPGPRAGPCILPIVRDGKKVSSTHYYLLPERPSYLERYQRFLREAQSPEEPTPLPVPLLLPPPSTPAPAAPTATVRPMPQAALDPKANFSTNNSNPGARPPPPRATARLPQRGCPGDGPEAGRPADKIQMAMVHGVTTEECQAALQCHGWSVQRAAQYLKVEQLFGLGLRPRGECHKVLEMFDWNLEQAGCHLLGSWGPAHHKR
T3 sequence (Q13164 whole entry): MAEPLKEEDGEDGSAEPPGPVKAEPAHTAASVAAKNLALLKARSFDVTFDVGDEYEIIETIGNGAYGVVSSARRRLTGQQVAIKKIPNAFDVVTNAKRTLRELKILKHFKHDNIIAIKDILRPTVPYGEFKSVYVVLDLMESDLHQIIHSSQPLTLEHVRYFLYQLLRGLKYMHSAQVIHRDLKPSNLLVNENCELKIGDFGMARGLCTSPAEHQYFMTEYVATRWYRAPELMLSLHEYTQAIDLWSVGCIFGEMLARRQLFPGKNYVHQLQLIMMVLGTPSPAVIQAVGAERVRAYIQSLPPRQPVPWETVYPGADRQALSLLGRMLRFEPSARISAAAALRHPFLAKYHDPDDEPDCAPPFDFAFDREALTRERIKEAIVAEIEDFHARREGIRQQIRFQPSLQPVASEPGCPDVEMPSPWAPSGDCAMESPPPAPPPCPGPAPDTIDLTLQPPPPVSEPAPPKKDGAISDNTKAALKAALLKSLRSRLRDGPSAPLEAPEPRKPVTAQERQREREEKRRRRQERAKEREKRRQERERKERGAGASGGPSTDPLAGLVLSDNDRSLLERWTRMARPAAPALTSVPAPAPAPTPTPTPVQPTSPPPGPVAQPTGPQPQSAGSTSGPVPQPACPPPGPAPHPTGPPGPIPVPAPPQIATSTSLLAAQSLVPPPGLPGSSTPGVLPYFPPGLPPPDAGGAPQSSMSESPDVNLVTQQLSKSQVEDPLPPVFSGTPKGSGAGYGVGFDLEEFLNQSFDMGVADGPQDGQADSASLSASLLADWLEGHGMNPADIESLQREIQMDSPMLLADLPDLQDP

SMILES	inhibition at 1 µM (JAK1; [1])	inhibition at 1 µM (AurA; [2])	IC50 (ERK5; [3])	inhibition at 1 µM (ERK5; [4])	inhibition at 1 µM (ACK; [5])	Kinase inhibition % at indicated screening concentration: AMPKa1 or AMPKa2 (AMPKa1 or AMPKa2)	inhibition at 1 µM (TAO2; [6])	Kinase inhibition % at indicated screening concentration: ABL or ARG (ABL or ARG)	Kinase inhibition % at indicated screening concentration: AurB or AurC (AurB or AurC)	inhibition at 1 µM (JAK1; screening concentration 1 μM, read-out: JAK1 Inhibition % at indicated screening concentration)	inhibition at 1 µM (AurA; screening concentration 1 μM, read-out: AurA Inhibition % at indicated screening concentration)	IC50 (ERK5; calculated from percent inhibition and screening concentration, AX9989 probe)	inhibition at 1 µM (ERK5; screening concentration 1 μM, read-out: ERK5 Inhibition % at indicated screening concentration)	inhibition at 1 µM (ACK; screening concentration 1 μM, read-out: ACK Inhibition % at indicated screening concentration)	AMPKa1 or AMPKa2 Inhibition % at indicated screening concentration (AMPKa1 or AMPKa2; screening concentration 1 μM)	inhibition at 1 µM (TAO2; screening concentration 1 μM, read-out: TAO2 Inhibition % at indicated screening concentration)	ABL or ARG Inhibition % at indicated screening concentration (ABL or ARG; screening concentration 1 μM)	AurB or AurC Inhibition % at indicated screening concentration (AurB or AurC; screening concentration 1 μM)	EC50 (human PBMCs)
Cc1c(Nc2cc3c(cn2)N(C)C(=O)c2ccccc2N3C)cnn1C [Compound 59]	≤ 35%	≤ 35%	101 to 500 nM	75 to 90%	≤ 35%	E (E is ≦35%)	≤ 35%	E (E is ≦35%)	E (E is ≦35%)	–	–	–	–	–	–	–	–	–	5840 nM
CN(C)CCn1cc(Nc2cc3c(cn2)N(C)C(=O)c2ccccc2N3C)cn1 [Compound 77]	≤ 35%	50 to 75%	101 to 500 nM	75 to 90%	≤ 35%	E (E is ≦35%)	35 to 50%	E (E is ≦35%)	B (B is >75% to ≦90%)	–	–	–	–	–	–	–	–	–	–

Continued, in another order:

inhibition at 1 µM (JAK1; [1])	inhibition at 1 µM (AurA; [2])	IC50 (ERK5; [3])	inhibition at 1 µM (ERK5; [4])	inhibition at 1 µM (ACK; [5])	Kinase inhibition % at indicated screening concentration: AMPKa1 or AMPKa2 (AMPKa1 or AMPKa2)	inhibition at 1 µM (TAO2; [6])	Kinase inhibition % at indicated screening concentration: ABL or ARG (ABL or ARG)	Kinase inhibition % at indicated screening concentration: AurB or AurC (AurB or AurC)	inhibition at 1 µM (JAK1; screening concentration 1 μM, read-out: JAK1 Inhibition % at indicated screening concentration)	inhibition at 1 µM (AurA; screening concentration 1 μM, read-out: AurA Inhibition % at indicated screening concentration)	IC50 (ERK5; calculated from percent inhibition and screening concentration, AX9989 probe)	inhibition at 1 µM (ERK5; screening concentration 1 μM, read-out: ERK5 Inhibition % at indicated screening concentration)	inhibition at 1 µM (ACK; screening concentration 1 μM, read-out: ACK Inhibition % at indicated screening concentration)	AMPKa1 or AMPKa2 Inhibition % at indicated screening concentration (AMPKa1 or AMPKa2; screening concentration 1 μM)	inhibition at 1 µM (TAO2; screening concentration 1 μM, read-out: TAO2 Inhibition % at indicated screening concentration)	ABL or ARG Inhibition % at indicated screening concentration (ABL or ARG; screening concentration 1 μM)	AurB or AurC Inhibition % at indicated screening concentration (AurB or AurC; screening concentration 1 μM)	SMILES	EC50 (human PBMCs)
≤ 35%	≤ 35%	101 to 500 nM	75 to 90%	≤ 35%	E (E is ≦35%)	≤ 35%	E (E is ≦35%)	E (E is ≦35%)	–	–	–	–	–	–	–	–	–	CCN(CC)CCNC(=O)c1ccc(OC)c(Nc2cc3c(cn2)N(C)C(=O)c2ccccc2N3C)c1 [Compound 16]	1870 nM
≤ 35%	≤ 35%	> 500 nM	≤ 35%	≤ 35%	E (E is ≦35%)	≤ 35%	E (E is ≦35%)	E (E is ≦35%)	–	–	–	–	–	–	–	–	–	CCOc1cc(C)ccc1Nc1cc2c(cn1)N(C)C(=O)c1ccccc1N2C [Compound 95]	3730 nM
–	–	–	–	–	–	–	–	–	≤ 35%	≤ 35%	101 to 500 nM	50 to 75%	≤ 35%	E (E is ≦35%)	≤ 35%	E (E is ≦35%)	E (E is ≦35%)	CCOc1cc(C(=O)N2CCOCC2)ccc1Nc1cc2c(cn1)N(C)C(=O)c1ccccc1S2 [Compound T82, 3-((2-ethoxy-4-(morpholine-4-carbonyl)phenyl)amino)-11-methylbenzo[f]pyrido[4,3-b][1,4]thiazepin-10(11H)-one]	–
